Experimental data: EP0657160A1, “Oral composition for desensitising sensitive teeth” (UNILEVER N.V., priority 1993, dated 1995)
Structures can show the parent of a compound that is named as a salt. Where two headings read alike, the source gives them in different places.

Test system: spinal nerve roots of the cauda equina
Experiment: Compound nerve action potentials (CAPs) recorded in vitro from isolated spinal nerve roots
Design: species or system rats
Conditions: for IC50: K+ concentration read from the dose-response curves, read-out: 50% reduction of the CAP
Description: Using the method as described in J. Physiol 275, (1978), pages 177-189, experiments were carried out in vitro on spinal nerve roots of the cauda equina dissected from killed rats. Compound nerve action potentials (CAPs) were recorded from the nerves which were placed in a bath incorporating stimulating and recording electrodes and analyzed with MacLab Scope. Kreb's solutions containing various potassium ion concentrations were applied for 5 minutes to an isolated central portion of the nerve between the two sets of electrodes. With all potassium salts tested, the amplitude and area of the CAPs were reduced in a dose-dependent manner by test solutions containing 8 mM K⁺ or more. "Mean INT" in the table is the mean integrated CAP, expressed as a percentage of the control response, i.e. the response obtained with Krebs' solution containing 4mM K⁺. There were no differences in the results for CAP peak amplitudes and integrated CAPs.
Wilcoxons' Sum of Ranks test was used to compare the % of control I-CAP values obtained after 5 min exposure to the different K⁺ salts at equivalent concentrations.

[1] = [K+] 8 mM, applied for 5 minutes, mean integrated CAP as percentage of control response (Krebs' solution containing 4mM K+)
[2] = [K+] 16 mM, applied for 5 minutes, mean integrated CAP as percentage of control response (Krebs' solution containing 4mM K+)
[3] = [K+] 24 mM, applied for 5 minutes, mean integrated CAP as percentage of control response (Krebs' solution containing 4mM K+)
[4] = [K+] 32 mM, applied for 5 minutes, mean integrated CAP as percentage of control response (Krebs' solution containing 4mM K+)
[5] = [K+] 64 mM, applied for 5 minutes, mean integrated CAP as percentage of control response (Krebs' solution containing 4mM K+)

Compound	IC50 [mM]	mean INT.(%) [1] [%]	mean INT.(%) [2] [%]	mean INT.(%) [3] [%]	mean INT.(%) [4] [%]	mean INT.(%) [5] [%]	effect on CAP compared with potassium oxalate (16-64 mM K+, p < 0.05)	activity at 8000 µM (Rattus norvegicus, 5 min, [K+] 8 mM, applied for 5 minutes, mean integrated CAP as percentage of control response (Krebs' solution containing 4mM K+), read-out: mean INT.(%)) [%]	activity at 16000 µM (Rattus norvegicus, 5 min, [K+] 16 mM, applied for 5 minutes, mean integrated CAP as percentage of control response (Krebs' solution containing 4mM K+), read-out: mean INT.(%)) [%]	activity at 24000 µM (Rattus norvegicus, 5 min, [K+] 24 mM, applied for 5 minutes, mean integrated CAP as percentage of control response (Krebs' solution containing 4mM K+), read-out: mean INT.(%)) [%]	activity at 32000 µM (Rattus norvegicus, 5 min, [K+] 32 mM, applied for 5 minutes, mean integrated CAP as percentage of control response (Krebs' solution containing 4mM K+), read-out: mean INT.(%)) [%]	activity at 64000 µM (Rattus norvegicus, 5 min, [K+] 64 mM, applied for 5 minutes, mean integrated CAP as percentage of control response (Krebs' solution containing 4mM K+), read-out: mean INT.(%)) [%]	IC50 (Rattus norvegicus) [mM]
[Cl-].[K+] [KCl, potassium chloride]	17.8	98	59	13	1	0	–	–	–	–	–	–	–
O=[N+]([O-])[O-].[K+] [KNO₃, potassium nitrate]	17.4	91	54	17	2	0	–	–	–	–	–	–	–
O=C(O)C(O)C(O)C(=O)O (stereo not shown) [K₂Tartrate, dipotassium tartrate]	–	–	–	–	–	–	significantly greater	83	15	2	1	1	11.6
potassium oxalate [K₂Oxalate]	14.3	84	42	11	3	1	–	–	–	–	–	–	–
